Test results published in patent publication US12522606B2, “Modified pyrrolo- and pyrazolo-pyrimidines for prostate cancer therapy” (University of Washington, priority 2020, dated 2026).

Legend:
PC3 = assay: MTT proliferation assay, PC3; settings: Homo sapiens; for EC50: read-out: EC50 PC3; for inhibition at 10 µM: PC-3, read-out: MTT % inhib @ 10 μM PC3
LNCaP95 = assay: MTT proliferation assay, LNCaP95; format: cell-based; settings: Homo sapiens, LNCaP-95; for EC50: Table 1, LNCaP95 (AR+ PCa), unit inferred; for inhibition at 10 µM: read-out: MTT % inhib @ 10 μM LNCaP95
Procedure: Anti-tumor activity was determined by screening a series of compounds against the castrate-resistant, androgen-receptor-positive, prostate cancer cell line LNCaP95. […] Inhibition of proliferation was determined based on the level of LNCaP95 cell growth suppression using an MTT assay (NAD(P)H-dependent cellular oxidoreductase enzymatic activities)) read at 72 and 96 hours after addition of the compounds. […] Each cell line was be tested in quadruplicate.

SMILES	EC50 (PC3)	EC50 (LNCaP95)	inhibition at 10 µM (PC3)	inhibition at 10 µM (LNCaP95)
CCOCCNc1ncnc2c1c(-c1ccc(-c3ccc(Br)cc3)cc1)cn2CC(C)(C)O [Example 40, 1-(5-(4′-bromobiphenyl-4-yl)-4-(2-ethoxyethylamino)-7H-pyrrolo[2,3-d]pyrimidin-7-yl)-2-methylpropan-2-ol]	> 20 µM	> 10 µM	11.1%	-0.2%
CC(C)(O)Cn1cc(-c2ccc(-c3ccccc3)cc2)c2c(NCCO)ncnc21 [Example 30, 1-(5-(biphenyl-4-yl)-4-(2-hydroxyethylamino)-7H-pyrrolo[2,3d]pyrimidin-7-yl)-2-methylpropan-2-ol]	> 20 µM	4 µM	-18.1%	37.8%
CCc1ccc(-c2ccc(-c3cn(CC(C)(C)OC)c4ncnc(NC)c34)cc2)cc1 [Example 34, 5-(4′-ethylbiphenyl-4-yl)-7-(2-methoxy-2-methylpropyl)-N-methyl-7H-pyrrolo[2,3-d]pyrimidin-4-amine]	> 20 µM	6 µM	9.1%	29.7%
COCCOc1ncnc2c1c(-c1ccc3ccccc3c1)cn2CC(C)(C)O [Example 7, 1-(4-(2-methoxyethoxy)-5-(naphthalen-2-yl)-7H-pyrrolo[2,3-d]pyrimidin-7-yl)-2-methylpropan-2-ol]	> 20 µM	12 µM	-36.2%	23.9%
CC(C)(O)Cn1cc(-c2ccc3cc(OC4CC4)ccc3c2)c2c(NCCOCCN)ncnc21 [Example 27, 1-(4-(2-(2-aminoethoxy)ethylamino)-5-(6-cyclopropoxynaphthalen-2-yl)-7H-pyrrolo[2,3-d]pyrimidin-7-yl)-2-methylpropan-2-ol]	> 20 µM	> 10 µM	-5.2%	8.6%
CCOc1ccc2cc(-c3cn(CC(C)(C)O)c4ncnc(NCCN)c34)ccc2c1 [Example 23, 1-(4-(2-aminoethylamino)-5-(6-ethoxynaphthalen-2-yl)-7H-pyrrolo[2,3-d]pyrimidin-7-yl)-2-methylpropan-2-ol]	> 20 µM	> 10 µM	27.2%	22.9%
CNc1ncnc2c1c(-c1cccc(C(C)C)c1)nn2CC(C)(C)O [Example 16, 1-(3-(3-isopropylphenyl)-4-(methylamino)-1H-pyrazolo[3,4-d]pyrimidin-1-yl)-2-methylpropan-2-ol]	> 20 µM	> 15 µM	-10.5%	11.3%
CNc1ncnc2c1c(-c1cccc(-c3ccccc3)c1)nn2CC(C)(C)O [Example 19, 1-(3-(biphenyl-3-yl)-4-(methylamino)-1H-pyrazolo[3,4-d]pyrimidin-1-yl)-2-methylpropan-2-ol]	> 20 µM	5 µM	4.4%	21.3%
CNc1ncnc2c1c(-c1cccc(C(C)C)c1)cn2CC(C)(C)OC [Example 21, 5-(3-isopropylphenyl)-7-(2-methoxy-2-methylpropyl)-N-methyl-7H-pyrrolo[2,3-d]pyrimidin-4-amine]	> 20 µM	7 µM	-5.4%	-2.7%
CCOCCNc1ncnc2c1c(-c1ccc3cc(OC4CC4)ccc3c1)cn2CC(C)(C)O [Example 35, 1-(5-(6-cyclopropoxynaphthalen-2-yl)-4-(2-ethoxyethylamino)-7H-pyrrolo[2,3-d]pyrimidin-7-yl)-2-methylpropan-2-ol]	> 20 µM	4 µM	16.5%	27.1%
CCOc1ccc2cc(-c3cn(CC(C)(C)O)c4ncnc(NCCO)c34)ccc2c1 [Example 25, 1-(5-(6-ethoxynaphthalen-2-yl)-4-(2-hydroxyethylamino)-7H-pyrrolo[2,3-d]pyrimidin-7-yl)-2-methylpropan-2-ol]	> 20 µM	5 µM	10.3%	34.6%
CC(C)(O)Cn1cc(-c2ccc3cc(OC4CC4)ccc3c2)c2c(NCCN)ncnc21 [Example 24, 1-(4-(2-aminoethylamino)-5-(6-cyclopropoxynaphthalen-2-yl)-7H-pyrrolo[2,3-d]pyrimidin-7-yl)-2-methylpropan-2-ol]	> 20 µM	> 10 µM	6.7%	35.1%
CCOCCNc1ncnc2c1c(-c1ccc(-c3ccc(OC)cc3)cc1)cn2CC(C)(C)O [Example 38, 1-(4-(2-ethoxyethylamino)-5-(4′-methoxybiphenyl-4-yl)-7H-pyrrolo[2,3-d]pyrimidin-7-yl)-2-methylpropan-2-ol]	> 20 µM	4 µM	11.6%	39.5%
CNc1ncnc2c1c(-c1ccc(-c3ccccc3)cc1F)nn2CC(C)(C)O [Example 20, 1-(3-(3-fluorobiphenyl-4-yl)-4-(methylamino)-1H-pyrazolo[3,4-d]pyrimidin-1-yl)-2-methylpropan-2-ol]	> 20 µM	> 20 µM	8.3%	16.5%
CCOCCNc1ncnc2c1c(-c1ccc(-c3ccccc3)cc1)cn2CC(C)(C)O [Example 37, 1-(5-(biphenyl-4-yl)-4-(2-ethoxyethylamino)-7H-pyrrolo[2,3-d]pyrimidin-7-yl)-2-methylpropan-2-ol]	> 20 µM	> 10 µM	9%	8.4%
COc1ccc2cc(-c3cn(CC(C)(C)O)c4ncnc(NC5CC5)c34)ccc2c1 [Example 42, 1-(4-(cyclopropylamino)-5-(6-methoxynaphthalen-2-yl)-7H-pyrrolo[2,3-d]pyrimidin-7-yl)-2-methylpropan-2-ol]	> 20 µM	20 µM		

Now from value to compound, other results behind:

EC50 (PC3)	EC50 (LNCaP95)	SMILES	inhibition at 10 µM (PC3)	inhibition at 10 µM (LNCaP95)
> 20 µM	5 µM	COc1ccc2cc(-c3cn(CC(C)(C)O)c4ncnc(NC(C)C)c34)ccc2c1 [Example 45, 1-(4-(isopropylamino)-5-(6-methoxynaphthalen-2-yl)-7H-pyrrolo[2,3-d]pyrimidin-7-yl)-2-methylpropan-2-ol]		
> 20 µM	5 µM	CC(C)(O)Cn1cc(-c2ccc3cc(OC4CC4)ccc3c2)c2c(NCCOCCNC(=O)OC3CC/C=C/CCC3)ncnc21 (stereo not drawn) [Example 29, trans-cyclooct-4-enyl 2-(2-(5-(6-cyclopropoxynaphthalen-2-yl)-7-(2-hydroxy-2-methylpropyl)-7H-pyrrolo[2,3-d]pyrimidin-4-ylamino)ethoxy)ethylcarbamate]	-31%	33.7%
> 20 µM	8 µM	CCOCCNc1ncnc2c1c(-c1ccc3cc(OC(C)C)ccc3c1)cn2CC(C)(C)O [Example 36, 1-(4-(2-ethoxyethylamino)-5-(6-isopropoxynaphthalen-2-yl)-7H-pyrrolo[2,3-d]pyrimidin-7-yl)-2-methylpropan-2-ol]	15.7%	22%
> 20 µM	5 µM	CC(C)(O)Cn1cc(-c2ccc3cc(OC4CC4)ccc3c2)c2c(NCCO)ncnc21 [Example 26, 1-(5-(6-cyclopropoxynaphthalen-2-yl)-4-(2-hydroxyethylamino)-7H-pyrrolo[2,3-d]pyrimidin-7-yl)-2-methylpropan-2-ol]	9.2%	40.6%
> 20 µM	> 10 µM	CCOCCNc1ncnc2c1c(-c1ccc(-c3ccc(CC)cc3)cc1)cn2CC(C)(C)O [Example 39, 1-(4-(2-ethoxyethylamino)-5-(4′-ethylbiphenyl-4-yl)-7H-pyrrolo[2,3-d]pyrimidin-7-yl)-2-methylpropan-2-ol]	8.3%	29.2%
> 20 µM	2 µM	C#CCCC1(CCOC(=O)NCCNc2ncnc3c2c(-c2ccc4cc(OCC)ccc4c2)cn3CC(C)(C)O)N=N1 [Example 10, 2-(3-(but-3-ynyl)-3H-diazirin-3-yl)ethyl 2-(5-(6-ethoxynaphthalen-2-yl)-7-(2-hydroxy-2-methylpropyl)-7H-pyrrolo[2,3-d]pyrimidin-4-ylamino)ethylcarbamate]		
20 µM	5 µM	CCOc1ccc2cc(-c3cn(CC(C)(C)O)c4ncnc(NC(C)C)c34)ccc2c1 [Example 44, 1-(5-(6-ethoxynaphthalen-2-yl)-4-(isopropylamino)-7H-pyrrolo[2,3-d]pyrimidin-7-yl)-2-methylpropan-2-ol]		
20 µM	10 µM	CC(C)Nc1ncnc2c1c(-c1ccc3cc(OC4CC4)ccc3c1)cn2CC(C)(C)O [Example 43, 1-(5-(6-cyclopropoxynaphthalen-2-yl)-4-(isopropylamino)-7H-pyrrolo[2,3-d]pyrimidin-7-yl)-2-methylpropan-2-ol]		
10 µM	6 µM	CCOc1ccc2cc(-c3cn(CC(C)(C)O)c4ncnc(NC5CC5)c34)ccc2c1 [Example 41, 1-(4-(cyclopropylamino)-5-(6-ethoxynaphthalen-2-yl)-7H-pyrrolo[2,3-d]pyrimidin-7-yl)-2-methylpropan-2-ol]		
10 µM	2.5 µM	CC(C)(O)Cn1cc(-c2ccc3cc(OC4CC4)ccc3c2)c2c(NC3CC3)ncnc21 [Example 17, 1-(5-(6-cyclopropoxynaphthalen-2-yl)-4-(cyclopropylamino)-7H-pyrrolo[2,3-d]pyrimidin-7-yl)-2-methylpropan-2-ol]		
